# Experimental data as given in US11701361B2, “p110-delta inhibitors treat and prevent autoimmunity while sparing the ability to mount an immune response to exogenous immunogens” (THE REGENTS OF THE UNIVERSITY OF COLORADO, priority 2018, dated 2023).
# Key:
# VH125.NOD mice = experiment: T1D disease progression in VH125.NOD mice on idelalisib chow; format: in vivo, mouse; conditions: female VH125.NOD mice, vs vehicle control chow
# From the text: Except where otherwise indicated, 6-16 week old mice were used in all experiments. Both male and female mice were used, but experiments were sex matched and both sexes gave identical results, with the exception of only female mice being used in the VH125.NOD experiments as female mice develop accelerated disease. hCD20-TamCre animals (Khalil, et al. Science 336: 1178-81) were intercrossed with mice carrying the rosa26-flox-STOP-YFP allele (Srinivas, et al., BMC Dev. Biol. 1:4), generating mice in which YFP is expressed in B cells upon Cre activation. These mice were crossed with Ars/A1 (Benschop, et al., Immunity 14: 33-43) transgenic mice to generate hCD20-TamCre×rosa26-flox-STOP-YFP×Ars/A1 mice. B cells from these mice will be referred to as WT Ars/A1. […]
# Diet dose (DD) is calculated by multiplying the single daily dose (SD) by the body weight of a mouse (BW) and dividing that by the daily food intake (FI) [DD=(SD×BW)/FI]. […]
# To test this possibility, immediately post-weaning, female VH125.NOD mice were placed on vehicle control chow to allow habituation to the diet. […] Disease progression was monitored based on blood glucose levels and visible signs of disease (i.e., hunching, scruffy fur, excessive urination).
# NOD mice = experiment: antibody response of NOD mice to NP4Ova+Alum immunization on idelalisib chow; format: in vivo, mouse
# Protocol: Diet dose (DD) is calculated by multiplying the single daily dose (SD) by the body weight of a mouse (BW) and dividing that by the daily food intake (FI) [DD=(SD×BW)/FI].
# For VH125.NOD experiments animals are placed on control chow immediately after weaning.
# HEL conjugated to SRBCs was used to produce antigen for experiments with MD4 B cells. SRBCs (Colorado Serum Company) were stored in Alsever's solution at 4° C. SRBCs are washed 3 times in PBS prior to use. 1 ml of 50 mg/ml of the chemical crosslinker N-(3-Dimethylaminopropyl)-N-ethylcarbodiimide hydrochloride (Sigma-Aldrich) was added to 1 ml packed SRBCs and 15 ml of 5 mg/ml HEL (Sigma-Aldrich), mixed and rotated at room temperature for 45 minutes. Mice were immunized IP with 200 μl of a 5% HEL-SRBC in PBS. For NP4Ova-Alum immunizations, 10 mg/ml alum and 5 mg/ml NP4Ova were mixed to a final concentration of 250 μg/ml NP4Ova and 2.5 mg/ml alum and rotated for 3 hours at room temperature. […] Mice were then immunized with NP4Ova-alum IP in 200 μl/mouse, and responses were measured on day 7 and day 14 post-immunization.
# For detection of IgM^a anti-Ars antibodies, microtiter plates were coated with 10 μg/ml Ars-BSA16 in PBS and blocked with 2 mg/ml BSA in PBS 0.05% Tween-20. For detection of IgM^a anti-HEL antibodies, microtiter plates were coated with 10 μg/ml HEL in PBS and blocked with 2 mg/ml BSA in PBS 0.05% Tween-20. For detection of total NP-specific IgM and IgG, microtiter plates were coated with 20 μg/ml NP27BSA and blocked with 2 mg/ml BSA in PBS 0.05% Tween-20. For detection of high affinity NP-specific IgM and IgG, microtiter plates were coated with 20 μg/ml NP2BSA and blocked with 2 mg/ml BSA in PBS 0.05% Tween-20. Serial dilutions of mouse serum in PBS were added and incubated overnight at 4° C. Ars/A1-derived IgM^a antibodies and MD4-derived HEL IgM^a antibodies were detected with biotinylated DS.1 anti-IgM^a (BD Pharmingen) in PBS, followed by Streptavidin-HRP (Thermo Fisher Scientific). For NP-specific IgM antibodies were detected using goat-anti-mouse IgM-HRP (SouthernBiotech). For NP-specific IgG antibodies were detected using goat-anti-mouse IgG-HRP (SouthernBiotech). Between all steps, plates were washed 3 times with PBS 0.05% Tween-20. The ELISA was developed with TMB single solution (Invitrogen) and the reaction was stopped with 1M HCl. OD was measured at 450 nm using a VERSAMax plate reader (Molecular Devices) and data analyzed with SoftMax Pro6 software.
# For detection of IgM^a anti-Ars antibodies, microtiter plates were coated with 10 μg/ml Ars-BSA16 in PBS and blocked with 2 mg/ml BSA in PBS 0.05% Tween-20. For detection of IgM^a anti-HEL antibodies, microtiter plates were coated with 10 μg/ml HEL in PBS and blocked with 2 mg/ml BSA in PBS 0.05% Tween-20. For detection of total NP-specific IgM and IgG, microtiter plates were coated with 20 μg/ml NP27BSA and blocked with 2 mg/ml BSA in PBS 0.05% Tween-20. For detection of high affinity NP-specific IgM and IgG, microtiter plates were coated with 20 μg/ml NP2BSA and blocked with 2 mg/ml BSA in PBS 0.05% Tween-20. Plates were washed 3 times prior to use with PBS 0.05% Tween-20. RBC-depleted single-cell suspension of splenocytes in complete medium were added in two-fold serial dilutions starting at 1/100th of a spleen in the first well. Plates were incubated overnight at 37° C. Ars/A1-derived IgM^a antibodies and MD4-derived HEL IgM^a antibodies were detected with biotinylated DS.1 anti-IgM^a (BD Pharmingen) in PBS, followed by Streptavidin-AP (SouthernBiotech). For NP-specific IgM antibodies were detected using goat-anti-mouse IgM-AP (SouthernBiotech). For NP-specific IgG antibodies were detected using goat-anti-mouse IgG-AP (SouthernBiotech). Between all steps, plates were washed 3 times with PBS 0.05% Tween-20. The plates were developed by incubated with ELISPOT developing buffer ([…] 5-bromochloro-3-indolyl phosphate p-toluidine, […], 100 mM Tris, and 10 mM MgCl2, pH 9.5) for 1 hour. […]
# [1] = 0.9375 mg/kg chow, 14 days post-immunization, vs vehicle control
# [2] = 0.9375 mg/kg chow, day 14 post-immunization, vs vehicle control
smiles,measurement,setting,value
"CC[C@H](Nc1ncnc2nc[nH]c12)c1nc2cccc(F)c2c(=O)n1-c1ccccc1 [idelalisib, 5-fluoro-3-phenyl-2-[(1S)-1-(7H-purin-6-ylamino)propyl]-4(3H)-quinazolinone]",disease progression (blood glucose levels and visible signs of disease),VH125.NOD mice; 0.9375 mg/kg idelalisib chow from pre-diabetic blood glucose readings,significantly delayed
same,survival,VH125.NOD mice; 0.9375 mg/kg idelalisib chow,extended
same,anti-NP IgM response in the spleen,"NOD mice; 0.9375 mg/kg chow for 4 weeks, 14 days post-immunization, vs vehicle control",not different
same,B cell numbers in the spleens,NOD mice; 0.9375 mg/kg chow vs vehicle control,no difference
same,high affinity IgG anti-NP ASCs/spleen,NOD mice; [1],no observed difference
same,number of high-affinity IgM anti-NP ASCs/spleen,NOD mice; [1],equivalent
same,number of total anti-NP IgM antibody secreting cells (ASCs) per spleen,NOD mice; [1],equivalent
same,total IgG anti-NP ASCs/spleen,NOD mice; [1],no observed difference
same,levels of IgG anti-NP found in the periphery,NOD mice; [2],equivalent
same,levels of IgM anti-NP found in the periphery,NOD mice; [2],equivalent
